One assay concerns facial skin. In words: Nine-month long-term study 2 (stem cell homeostasis module peptides). The format is in vivo, human. As to conditions: nine months; peptide tested with the other modules of TFC8-D; carrier in SEQ ID NO: 3 and 4 is PEG 35 kDa; sequence difference p-value <5%.
For assay [1] the following is noted: clinical phase III (Gunter & MacHens, 2012); cited from earlier work.

No end group written: not given here.

“Z1-LNPSECPKTVLGASTSTLDASYSTAEAENHVRL (not fully specified (N-terminus); printed as Z1-LNPSECPKTVLGASTSTLDASYSTAEAENHVRL) [SEQ ID NO: 4, Z1 carrier at N-terminus; as tested a polyethyleneglycol with a molecular weight of 35 kDa]”: in the assay with facial skin, the “frequency of reported product performance decline (comparison)” value (from here on “frequency”) is given as “lower for SEQ ID NO: 4 than for SEQ ID NO: 2”.

With “LNPSECPKTVLGASTSTLDASYSTAEAENHVRL (peptide that stimulates the Wnt beta-catenin signaling pathway) [SEQ ID NO: 2, peptide that stimulates Wnt/β-catenin signalling]”, the “frequency” value in the assay on facial skin is listed as “more strongly associated with a decline in product performance during the study period than the sequence of SEQ ID NO: 1”.

“(Z1)-LNPSECPKTVLGAEYGKTLDASYSTAEAENHVRL (not fully specified (N-terminus); printed as (Z1)-LNPSECPKTVLGAEYGKTLDASYSTAEAENHVRL) [SEQ ID NO: 3, Z1 carrier at N-terminus; as tested a polyethyleneglycol with a molecular weight of 35 kDa]”: the “frequency” value in the assay with facial skin was “lower for SEQ ID NO: 3 than for SEQ ID NO: 1”.

B1: Juvista: TGF beta 3 drug (protein, UniProt P10600 301-412, looked up)
Transforming growth factor …: ALDTNYCFRNLEENCCVRPLYIDFRQDLGWKWVHEPKGYYANFCSGPCPYLRSADTTHSTVLGLYNTLNPEASASPCCVPQDLEPLTILYYVGRTPKVEQLSNMVVKSCKCS
modifications: Transforming growth factor beta-3
notes: TGF beta 3 drug
Regarding B1, in assay [1], the clinical outcome is reported as “failure of a clinical phase III study”.

These data come from patent publication US20230135317A1, “COSMETIC FORMULATION FOR TOPICAL ADMINISTRATION COMPRISING NOVEL PEPTIDES THAT IMPROVE APPEARANCE AND REGENERATION OF SKIN” (ASC REGENITY LTD., priority 2020, published 2023).
